The results in this text go back to publication PMC11880984, “Altered O‐glycosylation of β1‐adrenergic receptor N‐terminal single‐nucleotide variants modulates receptor processing and functional activity” (The Febs Journal, 2024).

The assay addresses T1, hβ1AR (human β1-adrenergic receptor), WT S49 R389 (Homo sapiens, UniProt P08588).
T1 construct: gene ADRB1; full-length WT (S49, R389) with HA signal peptide, N-terminal MYC tag and C-terminal FLAG tag (pFT-SMMF); N-terminal part partly cleaved at R31/L32 in cells
Put plainly: radioligand saturation binding, membranes of stable HEK293i cells.

By Kd is commonly meant the equilibrium constant for the complex coming apart.

T1 sequence (P08588 whole entry G389R): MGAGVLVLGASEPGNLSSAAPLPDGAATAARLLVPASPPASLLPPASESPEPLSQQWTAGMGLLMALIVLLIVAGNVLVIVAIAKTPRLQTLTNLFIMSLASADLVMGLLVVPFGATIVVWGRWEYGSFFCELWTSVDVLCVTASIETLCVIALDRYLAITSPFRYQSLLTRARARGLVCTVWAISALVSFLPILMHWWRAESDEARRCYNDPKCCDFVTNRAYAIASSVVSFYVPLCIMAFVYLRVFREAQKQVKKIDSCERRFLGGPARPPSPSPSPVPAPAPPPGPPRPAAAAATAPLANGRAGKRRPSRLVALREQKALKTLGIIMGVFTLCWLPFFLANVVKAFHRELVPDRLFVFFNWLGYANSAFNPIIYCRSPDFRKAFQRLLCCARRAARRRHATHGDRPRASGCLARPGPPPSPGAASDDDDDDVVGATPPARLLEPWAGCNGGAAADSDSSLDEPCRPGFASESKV

As for `CCCc1ccccc1OCC(O)CNC(C)C` (stereo not shown) [[^3H]dihydroalprenolol], binding was characterised by a dissociation constant (Kd) of 420 ± 40 pM.
